# What was measured:
# [1] = system: HL-60 human promyelocytic leukemia cells; experiment: MTT cell growth inhibition assay, HL-60 promyelocytic leukemia cells, 72 h exposure; type: cell-based; details: for IC50: Homo sapiens, HL-60, promyelocytic leukemia cell line, MTT, 72 h, mean of six determinations, read-out: IC50 ± SEM HL-60
# [2] = Cyclic voltammetry, first half-wave potential; type: physicochemical; details: for −E^I1/2: sign inverted, 0.1 M tetraethylammonium tetrafluoroborate, sweep rate 100 mV s^−1; for −E^I1/2 / E^I1/2 (first half-wave potential): acetonitrile, Pt electrode, vs non-aqueous Ag/Ag+
# Method: The redox potentials of the members of the series were measured by cyclic voltammetry in acetonitrile as solvent, at room temperature, using a platinum electrode and 0.1 M tetraethylammonium tetrafluoroborate as the supporting electrolyte. […] The voltammograms were run in the potential range 0–2.0 V versus non-aqueous Ag/Ag+. The first half-wave potential values, E^I1/2, evaluated from the voltammograms obtained at a sweep rate of 100 mV s^−1, are summarized in Table 3.
# [3] = system: AGS human gastric adenocarcinoma cells; experiment: MTT cell growth inhibition assay, AGS gastric adenocarcinoma cells, 72 h exposure; type: cell-based; details: for IC50: human gastric adenocarcinoma cell line, MTT, 72 h, mean of six determinations, read-out: IC50 ± SEM AGS; for selectivity index (IS), AGS: MRC-5 relative to AGS
# [4] = system: MRC-5 normal human lung fibroblasts; experiment: MTT cell growth inhibition assay, MRC-5 normal lung fibroblasts, 72 h exposure; details: MRC5, 72 h, read-out: IC50 ± SEM MRC-5
# Method: Aminoisoquinolinequinones 5a–h and 6a–f were evaluated for in vitro antiproliferative activity against normal human lung fibroblast MRC-5 and two human cancer cells lines: AGS gastric adenocarcinoma and HL-60 promyelocytic leukemia cells, in 72 h drugs exposure assays. The antiproliferative activity of the new compounds was measured using conventional microculture tetrazolium reduction assays [25, 26, 27].
# The cell lines used in this work were obtained from the American Type Culture Collection (ATCC, Manasas, VA, USA). […] The cells were stored in medium containing 10% glycerol in liquid nitrogen. […] Cells were sub-cultured once a week and the medium was changed every two days. Cells were grown in the following media: MRC-5 in Eagle minimal essential medium (EMEM), AGS cells in Ham F-12, and HL-60 in suspension in RPM1. The EMEM medium contained 2 mM L-glutamine, 1 mM sodium pyruvate and 1.5 g/L sodium hydrogen carbonate. Ham F-12 was supplemented with 2 mM L-glutamine and 1.5 g/L sodium hydrogen carbonate. RPM1 medium containing 1mM sodium pyruvate and 2.0 g/L sodium bicarbonate. […] For the experiments, cells were plated at a density of 50,000 cells/mL in 96-well plates. One day after seeding, the cells were treated with the medium containing the compounds at concentrations ranging from 0 up to 100 μM during 3 days. […] The compounds were dissolved in DMSO (1% final concentration) and complete medium. Untreated cells (medium containing 1% DMSO) were used as controls. At the end of the incubation, the MTT reduction (3-(4,5-dimethylthiazol-2-yl)-2,5-diphenyltetrazolium bromide) assay was carried out to determine cell viability. The final concentration of MTT was 1 mg/mL. The culture medium containing the compounds under evaluation, was removed from each well by means by vacuum aspiration before adding the MTT solution. MTT metabolite was dissolved adding 100 µL of ethanol (acidified with HCl). The plates were shaken for 10 min and the absorbance was measured at 550 nm using a Universal Microplate Reader (ELx800, Bio-Tek Instruments Inc., Winnoski, VT, USA). Six replicates for each concentration were used and the values were averaged. […] The IC50 value was obtained adjusting the dose-response curve to a sigmoidal model (a + (b − a)/1 + 10^(x − c)), where c = log IC50.
SMILES,melting point [°C],IC50 [1] [µM],−E^I1/2 [2] [mV],IC50 [3] [µM],IC50 [4] [µM],"selectivity index (IS), AGS [3]",antiproliferative activity on AGS cancer cell line (in words) ([3]; effect of phenyl group inserted at 1-position of 5b),E^I1/2 (first half-wave potential) [2] [mV],"selectivity index (IS), HL-60 ([1]; MRC-5 relative to HL-60)",E^I1/2 (half-wave potential) [2] [mV]
"COC(=O)c1c(C)nc(-c2ccco2)c2c1C(=O)C=C(Nc1ccccc1)C2=O [5g, Methyl 1-(2-furan-2-yl)-3-methyl-5,8-dioxo-7-(phenylamino)-5,8-dihydroisoquinoline-4-carboxylate]",248 to 249,5 ± 0.35,554,1.79 ± 0.11,4.72 ± 0.29,,,,,
"CC(=O)c1c(C)nc(-c2ccccc2)c2c1C(=O)C=CC2=O [4b, 4-Acetyl-3-methyl-1-phenylisoquinoline-5,8-dione]",162.5 to 164,,416,,,,,,,
COC(=O)c1c(C)ncc2c1C(=O)C=C(Nc1ccccc1)C2=O [5a],,14.8 ± 0.74,563,1.1 ± 0.03,2.7 ± 0.6,,,,,
"COC(=O)c1c(C)nc(-c2ccco2)c2c1C(=O)C=C(Nc1ccc(OC)cc1)C2=O [5h, Methyl 1-(2-furan-2-yl)-7-(4-methoxyphenylamino)-3-methyl-5,8-dioxo-5,8-dihydroisoquinoline-4-carboxylate]",144 to 146,8.04 ± 0.49,577,1.83 ± 0.11,4.58 ± 0.35,,,,,
COC(=O)c1c(C)ncc2c1C(=O)C=C(Nc1ccc(OC)cc1)C2=O [5b],,3.8 ± 0.07,551,1.1 ± 0.1,2.8 ± 0.8,,,,,
"CC(=O)c1c(C)nc(-c2ccccc2)c2c1C(=O)C=C(Nc1ccccc1)C2=O [6b, 4-Acetyl-3-methyl-1-phenyl-7-(phenylamino)isoquinoline-5,8-dione]",181.5 to 183,4.74 ± 0.37,588,2.21 ± 0.09,5.51 ± 0.22,,,,,
"COC(=O)c1c(C)nc(-c2cccs2)c2c1C(=O)C=C(Nc1ccc(OC)cc1)C2=O [5f, Methyl 7-(4-methoxyphenylamino)-3-methyl-5,8-dioxo-1-(thiophen-2-yl)-5,8-dihydroisoquinoline-4-carboxylate]",214 to 216,10.26 ± 0.09,583,3.28 ± 0.13,9.19 ± 0.53,,,,,
"COC(=O)c1c(C)nc(-c2ccccc2)c2c1C(=O)C=C(Nc1ccccc1)C2=O [5c, Methyl 3-methyl-5,8-dioxo-1-phenyl-7-(phenylamino)-5,8-dihydroisoquinoline-4-carboxylate]",169.9 to 171.4,4.39 ± 0.26,560,2.52 ± 0.17,5.91 ± 0.36,,,,,
"COc1ccc(NC2=CC(=O)c3c(C(C)=O)c(C)nc(-c4ccccc4)c3C2=O)cc1 [6e, 4-Acetyl-7-(4-methoxyphenylamino)-3-methyl-1-phenylisoquinoline-5,8-dione]",162 to 163,9.36 ± 0.72,570,4.66 ± 0.28,16.1 ± 1.11,,,,,
"COC(=O)c1c(C)nc(-c2ccco2)c2c1C(=O)C=CC2=O [3d, Methyl 1-(furan-2-yl)-3-methyl-5,8-dioxo-5,8-dihydroisoquinoline-4-carboxylate]",159.5 to 160.5,,415,,,,,,,
"COc1ccc(NC2=CC(=O)c3c(C(C)=O)c(C)nc(-c4cccs4)c3C2=O)cc1 [6f, 4-Acetyl-7-(4-methoxyphenylamino)-3-methyl-1-(thiophen-2-yl)isoquinoline-5,8-dione]",188.5 to 190,> 100,576,4.28 ± 0.21,> 100,> 23,,,,
"CC(=O)c1c(C)nc(-c2cccs2)c2c1C(=O)C=CC2=O [4c, 4-Acetyl-3-methyl-1-(thiophen-2-yl)isoquinoline-5,8-dione]",161.5 to 163,,430,,,,,,,
"COC(=O)c1c(C)nc(-c2ccccc2)c2c1C(=O)C=CC2=O [3b, Methyl 3-methyl-5,8-dioxo-1-phenyl-5,8-dihydroisoquinoline-4-carboxylate]",175 to 176.5,,399,,,,,,,
"CC(=O)c1c(C)nc(-c2cccs2)c2c1C(=O)C=C(Nc1ccccc1)C2=O [6c, 4-Acetyl-3-methyl-7-(phenylamino)-1-(thiophen-2-yl)isoquinoline-5,8-dione]",93.5 to 94.5,> 100,576,> 100,> 100,,,,,
"CC(=O)c1c(C)nc(-c2ccco2)c2c1C(=O)C=CC2=O [4d, 4-Acetyl-1-(furan-2-yl)-3-methylisoquinoline-5,8-dione]",159 to 160,,384,,,,,,,
"COC(=O)c1c(C)nc(-c2ccccc2)c2c1C(=O)C=C(Nc1ccc(OC)cc1)C2=O [5d, Methyl 7-(4-methoxyphenylamino)-3-methyl-5,8-dioxo-1-phenyl-5,8-dihydroisoquinoline-4-carboxylate]",202 to 203.5,> 100,583,> 100,> 100,,suppression of the antiproliferative activity,,,
"CC(=O)c1c(C)nc(-c2ccco2)c2c1C(=O)C=C(Nc1ccccc1)C2=O [6d, 4-Acetyl-1-(2-furyl)-3-methyl-7-(phenylamino)isoquinoline-5,8-dione]",187 to 188.5,8.19 ± 0.57,533,1.79 ± 0.11,5.72 ± 0.24,,,,,
COC(=O)c1c(C)ncc2c1C(=O)C=CC2=O [3a],,,352,,,,,−352,,
"COC(=O)c1c(C)nc(-c2cccs2)c2c1C(=O)C=C(Nc1ccccc1)C2=O [5e, Methyl 3-methyl-5,8-dioxo-7-(phenylamino)-1-(thiophen-2-yl)-5,8-dihydroisoquinoline-4-carboxylate]",163.3 to 165.3,5.19 ± 0.31,565,4.24 ± 0.21,9.89 ± 0.51,,,,,
"CC(=O)c1c(C)ncc2c1C(=O)C=CC2=O [4a, 4-Acetyl-3-methylisoquinoline-5,8-dione]",146 to 148,,344,,,,,−344,,
"CC(=O)c1c(C)ncc2c1C(=O)C=C(Nc1ccccc1)C2=O [6a, 4-Acetyl-3-methyl-7-(phenylamino)isoquinoline-5,8-dione]",178 to 180,1.24 ± 0.06,464,1.19 ± 0.07,3.67 ± 0.22,3.08,,−464,2.96,-464
"COC(=O)c1c(C)nc(-c2cccs2)c2c1C(=O)C=CC2=O [3c, Methyl 3-methyl-5,8-dioxo-1-(thiophen-2-yl)-5,8-dihydroisoquinoline-4-carboxylate]",140 to 142.5,,392,,,,,,,
